# Entries after “also recorded” stand apart in the source; their conditions may differ. Read-outs that look alike come from different tables or passages of the source.
# Key:
# pancreatic amylase = test: Secretion of pancreatic amylase in the rat; assay type: in vivo; settings: 0.01-10 mg/kg i.v.
# NK1 recognition sites [1] = biological target: NK1 recognition sites (Mustela putorius, UniProt M3YAE5); test: NK1 binding, ferret
# cisplatin-induced emesis [2] = settings: cisplatin 5 mg/kg i.p.; The Compound 10 mg/kg or ondansetron 1 mg/kg i.p. three times a day
# [3] = Side effect liability: sedation or ataxia in the mouse; assay type: in vivo; settings: up to 100 mg/kg s.c.
# [4] = tested on: copper sulphate-induced emesis; test: Copper sulphate-induced emesis in the ferret; settings: Mustela putorius, 2 h, read-out: MED, copper sulphate-induced emesis
# [5] = Side effect liability: sedation or ataxia in the hamster; assay type: in vivo; settings: up to 100 mg/kg s.c.
# [6] = tested on: vehicle-induced emetic response; test: PEG-200 vehicle-induced emetic response in the ferret; assay type: in vivo; settings: 10 mg/kg; PEG-200 1 mL/kg i.p.
# cisplatin-induced emesis [7] = test: Cisplatin-induced acute emesis in the ferret; assay type: in vivo
# Excerpt: Adult male albino Fitch ferrets (>1 kg weight) were individually housed with free access to food (SDS Diet "C", Special Diet Services Ltd, Essex, U.K.). Thirty minutes prior to the commencement of the studies, the ferrets were presented with 100 g of commercially available tinned cat food.
# [8] = Pharmacokinetics and oral bioavailability in the rat; assay type: in vivo; settings: plasma; for Cmax: fasted male Wistar rats; for AUC(0-inf): read-out: AUC zero to infinite time; for half-life: read-out: t1/2 terminal elimination half-life (converted); for clearance: read-out: Cl total systemic clearance; for Vd: read-out: Vd steady-state volume of distribution
# Method: 0.5% methyl cellulose, and nanosystem vehicle, The drug was administered either PO by gavage or IV via jugular vein. Blood samples were drawn from jugular vein cannulac into syringes containing heparin before dosing and at different times up to 24 hours postdose. Plasma was harvested by centrifugation and stored at -20° C. until analysis. Plasma samples were analyzed for The Compound using a validated liquid chromatographic method.
# [9] = tested on: apomorphine-induced emesis; test: Apomorphine-induced emesis in the ferret; settings: Mustela putorius, 1 h, read-out: MED, apomorphine-induced emesis
# NK1 recognition sites [10] = biological target: T1, NK1 recognition sites (Mesocricetus auratus, UniProt A0A1U7QPR6); test: NK1 binding, hamster brain
# T1 construct: NK1 recognition sites present in human cell line, guinea pig, dog, ferret, and hamster brain; from tissue; host or cells: hamster brain
# T1 sequence (A0A1U7QPR6 1-407): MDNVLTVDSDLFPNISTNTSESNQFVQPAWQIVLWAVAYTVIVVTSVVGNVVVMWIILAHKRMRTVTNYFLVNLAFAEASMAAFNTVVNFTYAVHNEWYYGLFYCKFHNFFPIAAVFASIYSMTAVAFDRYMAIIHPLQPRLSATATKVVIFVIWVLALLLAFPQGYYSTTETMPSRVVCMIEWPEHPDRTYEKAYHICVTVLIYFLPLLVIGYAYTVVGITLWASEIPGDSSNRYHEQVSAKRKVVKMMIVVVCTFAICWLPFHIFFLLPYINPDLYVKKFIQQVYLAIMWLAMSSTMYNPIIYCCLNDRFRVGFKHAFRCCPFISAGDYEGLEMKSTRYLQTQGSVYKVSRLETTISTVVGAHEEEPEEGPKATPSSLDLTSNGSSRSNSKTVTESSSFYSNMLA
# [11] = Brain penetration in the rat using HPLC assay; assay type: in vivo; settings: for Tmax: read-out: time of highest brain concentration (converted);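 for % Dose in Brain: IV 4.5 mg/kg via tail vein or PO 21.4 mg/kg by gavage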;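 for amount in brain: IV 4.5 mg/kg via tail vein or PO 21.4 mg/kg by gavage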
# Method: Three rats were used for each time point. Prior to blood and brain sampling, rats were anesthetized with ether. Blood samples were collected by cardiac puncture. After transcardiac perfusion with normal saline, whole brains were collected. Plasma and brain samples were analyzed using liquid chromatographic florescence detection methods. […] Total amount in brain at these times was respectively 2.5 and 0.04 μg (Tables 2 and 13). Brain to plasma concentration ratio after IV administration was highest (1.8) at 15 minutes and then decreased to a steady value approximately 0.5 at later postdose times (Table 2).
# [12] = Blood pressure and heart rate of anaesthetized guinea-pigs; assay type: in vivo, guinea-pig; settings: 0.1-1.0 mg/kg i.v.
# Chain of NK1 recognition sites (Mustela putorius, UniProt M3YAE5) (M3YAE5 1-407): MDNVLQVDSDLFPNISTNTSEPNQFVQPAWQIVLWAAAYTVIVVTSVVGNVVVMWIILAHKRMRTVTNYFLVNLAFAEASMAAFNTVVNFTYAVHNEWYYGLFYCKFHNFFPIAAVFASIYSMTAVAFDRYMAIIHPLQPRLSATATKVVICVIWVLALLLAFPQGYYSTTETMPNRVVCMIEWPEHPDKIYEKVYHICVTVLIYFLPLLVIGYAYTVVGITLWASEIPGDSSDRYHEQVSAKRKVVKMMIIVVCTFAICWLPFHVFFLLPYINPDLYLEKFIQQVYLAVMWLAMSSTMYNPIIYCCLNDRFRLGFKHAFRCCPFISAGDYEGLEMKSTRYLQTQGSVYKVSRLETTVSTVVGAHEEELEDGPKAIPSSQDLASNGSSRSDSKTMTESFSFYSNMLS
smiles,measurement,setting,value
"C[C@H](NC(=O)[C@@](C)(Cc1c[nH]c2ccccc12)NC(=O)OCc1cc2ccccc2o1)c1ccccc1 [The Compound, [R,S]-[2-(1H-Indol-3-yl)-1-methyl-1-(1-phenyl-ethylcarbamoyl)-ethyl]-carbamic acid benzofuran-2-ylmethyl ester]",stimulation of secretion of pancreatic amylase,pancreatic amylase,failed
same,affinity to NK1 recognition sites,NK1 recognition sites [1],nanamolar affinity
same,delayed emesis during the 3 days (3-72 hours),cisplatin-induced emesis [2],completely blocked
same,retching and vomiting during the first 3 hours of the emetic response (acute),cisplatin-induced emesis [2],completely blocked
same,ataxia,[3],failed to induce
same,sedation,[3],failed to induce
same,minimal effective dose,[4],30 mg/kg
same,ataxia,[5],failed to induce
same,sedation,[5],failed to induce
same,antagonism of vehicle-induced emetic response,[6],completely antagonized
same,antagonism of the emetic response,"cisplatin-induced emesis [7]; 30 mg/kg i.p., cisplatin 10 mg/kg i.p.",complete antagonism; also recorded: completely antagonized
same,minimal effective dose,"cisplatin-induced emesis [7]; Mustela putorius, i.p. in PEG-200, 3-30 mg/kg, 1 hour before cisplatin 10 mg/kg i.p., 4-hour observation, read-out: minimum effective dose, frequency of vomiting and retching",3 mg/kg
same,Tmax,[8]; MC suspension PO 3.7 mg/kg,3.5 h
same,Cmax,[8]; MC suspension PO 3.7 mg/kg,15.1 ng/mL
same,bioavailability,"[8]; MC suspension PO 3.7 mg/kg, read-out: % F absolute oral bioavailability",4.1%
same,AUC(0-inf),[8]; MC suspension PO 3.7 mg/kg,107 ng·h/mL
same,half-life,[8]; MC suspension PO 3.7 mg/kg,2.8 h
same,AUC(0-inf),[8]; NANOSUSPENSION IV 4.6 mg/kg,2790 ng·h/mL
same,clearance,[8]; NANOSUSPENSION IV 4.6 mg/kg,27.8 mL/min/kg
same,Vd,[8]; NANOSUSPENSION IV 4.6 mg/kg,3.7 L/kg
same,half-life,[8]; NANOSUSPENSION IV 4.6 mg/kg,4.8 h
same,Tmax,[8]; NANOSUSPENSION PO 18.4 mg/kg,2.3 h
same,Cmax,[8]; NANOSUSPENSION PO 18.4 mg/kg,643 ng/mL
same,bioavailability,"[8]; NANOSUSPENSION PO 18.4 mg/kg, read-out: % F absolute oral bioavailability",47%
same,AUC(0-inf),[8]; NANOSUSPENSION PO 18.4 mg/kg,5220 ng·h/mL
same,half-life,[8]; NANOSUSPENSION PO 18.4 mg/kg,2.5 h
same,AUC(0-inf),[8]; PEG-400 solution IV 5 mg/kg,3560 ng·h/mL
same,clearance,[8]; PEG-400 solution IV 5 mg/kg,23.9 mL/min/kg
same,Vd,[8]; PEG-400 solution IV 5 mg/kg,3 L/kg
same,half-life,[8]; PEG-400 solution IV 5 mg/kg,3.5 h
same,Tmax,[8]; PEG-400 solution PO 20 mg/kg,5 h
same,Cmax,[8]; PEG-400 solution PO 20 mg/kg,774 ng/mL
same,bioavailability,"[8]; PEG-400 solution PO 20 mg/kg, read-out: % F absolute oral bioavailability",49%
same,AUC(0-inf),[8]; PEG-400 solution PO 20 mg/kg,6960 ng·h/mL
same,half-life,[8]; PEG-400 solution PO 20 mg/kg,3 h
same,bioavailability,"[8]; po, nanosuspension and PEG/EtOH/Water vehicles, read-out: absolute oral bioavailability",47 to 49%
same,minimal effective dose,[9],30 mg/kg
same,affinity to NK1 recognition sites,NK1 recognition sites [10],nanamolar affinity
same,total amount in brain,"[11]; IV 4.5 mg/kg, 15 minutes",2.5 µg
same,Brain Conc. (BC),"[11]; IV bolus 4.5 mg/kg in PEG-400/EtOH/Water, 0.25 h, 4.5 mg/kg, 15 min",1448 ± 456 ng/g
same,% Dose in Brain,"[11]; IV bolus 4.5 mg/kg, 0.25 h",0.235 ± 0.051%
same,Amount in Brain,"[11]; IV bolus 4.5 mg/kg, 0.25 h",2711 ± 668 ng
same,% Dose in Brain,"[11]; IV bolus 4.5 mg/kg, 2 h",0.0098%
same,Amount in Brain,"[11]; IV bolus 4.5 mg/kg, 2 h",114 ± 8.6 ng
same,% Dose in Brain,"[11]; IV bolus 4.5 mg/kg, 4 h",0.0033 ± 0.0003%
same,Amount in Brain,"[11]; IV bolus 4.5 mg/kg, 4 h",40 ± 3.4 ng
same,% Dose in Brain,"[11]; IV bolus 4.5 mg/kg, 8 h",0.0078%
same,Amount in Brain,"[11]; IV bolus 4.5 mg/kg, 8 h",9.6 ng
same,% Dose in Brain,"[11]; PO 21.4 mg/kg, 0.25 h",0.00095 ± 0.00053%
same,Amount in Brain,"[11]; PO 21.4 mg/kg, 0.25 h",57 ± 31 ng
same,% Dose in Brain,"[11]; PO 21.4 mg/kg, 2 h",0.00291%
same,Amount in Brain,"[11]; PO 21.4 mg/kg, 2 h",189 ± 156 ng
same,total amount in brain,"[11]; PO 21.4 mg/kg, 2 hours",0.04 µg
same,% Dose in Brain,"[11]; PO 21.4 mg/kg, 4 h",0.0064%
same,Amount in Brain,"[11]; PO 21.4 mg/kg, 4 h",410 ± 333 ng
same,% Dose in Brain,"[11]; PO 21.4 mg/kg, 8 h",0.0013 ± 0.0012%
same,Amount in Brain,"[11]; PO 21.4 mg/kg, 8 h",81 ± 73 ng
same,% Dose in Brain,"[11]; PO 21.4 mg/kg, 12 h",0.00047 ± 0.00017%
same,Amount in Brain,"[11]; PO 21.4 mg/kg, 12 h",30 ng
same,Tmax,"[11]; brain, IV 4.5 mg/kg",0.25 h
same,Tmax,"[11]; brain, PO 21.4 mg/kg",2 h
same,Kp,"[11]; brain, iv, 4.5 mg/kg, IV 4.5 mg/kg, later postdose times, read-out: brain to plasma concentration ratio, steady value",~0.5
same,concentration at 0.25 h,"[11]; brain, iv, 4.5 mg/kg, IV bolus 4.5 mg/kg in PEG-400/EtOH/Water, 0.25 h, read-out: Brain Conc. (BC)",1400 ng/g
same,Kp at 0.25 h,"[11]; brain, iv, 4.5 mg/kg, IV bolus 4.5 mg/kg, 0.25 h, read-out: BC/PC Ratio",1.8
same,Kp at 2 h,"[11]; brain, iv, 4.5 mg/kg, IV bolus 4.5 mg/kg, 2 h, read-out: BC/PC Ratio",0.47 ± 0.11
same,concentration at 2 h,"[11]; brain, iv, 4.5 mg/kg, IV bolus 4.5 mg/kg, 2 h, read-out: Brain Conc. (BC)",57 ± 4.5 ng/g
same,Kp at 4 h,"[11]; brain, iv, 4.5 mg/kg, IV bolus 4.5 mg/kg, 4 h, read-out: BC/PC Ratio",0.47 ± 0.05
same,concentration at 4 h,"[11]; brain, iv, 4.5 mg/kg, IV bolus 4.5 mg/kg, 4 h, read-out: Brain Conc. (BC)",20 ± 1.9 ng/g
same,concentration at 8 h,"[11]; brain, iv, 4.5 mg/kg, IV bolus 4.5 mg/kg, 8 h, N = 1, read-out: Brain Conc. (BC)",4.8 ng/g
same,Kp at 8 h,"[11]; brain, iv, 4.5 mg/kg, IV bolus 4.5 mg/kg, 8 h, read-out: BC/PC Ratio",0.52
same,concentration at 0.25 h,"[11]; brain, po, 21.4 mg/kg, PO 21.4 mg/kg in PEG-400/EtOH/Water, 0.25 h, read-out: Brain Conc. (BC)",31 ± 17 ng/g
same,Kp at 0.25 h,"[11]; brain, po, 21.4 mg/kg, PO 21.4 mg/kg, 0.25 h, read-out: BC/PC Ratio",0.27 ± 0.06
same,Kp at 2 h,"[11]; brain, po, 21.4 mg/kg, PO 21.4 mg/kg, 2 h, read-out: BC/PC Ratio",0.3 ± 0.03
same,concentration at 2 h,"[11]; brain, po, 21.4 mg/kg, PO 21.4 mg/kg, 2 h, read-out: Brain Conc. (BC)",96 ± 79 ng/g
same,Kp at 4 h,"[11]; brain, po, 21.4 mg/kg, PO 21.4 mg/kg, 4 h, read-out: BC/PC Ratio",0.29 ± 0.09
same,concentration at 4 h,"[11]; brain, po, 21.4 mg/kg, PO 21.4 mg/kg, 4 h, read-out: Brain Conc. (BC)",212 ± 168 ng/g
same,Kp at 8 h,"[11]; brain, po, 21.4 mg/kg, PO 21.4 mg/kg, 8 h, read-out: BC/PC Ratio",0.33 ± 0.11
same,concentration at 8 h,"[11]; brain, po, 21.4 mg/kg, PO 21.4 mg/kg, 8 h, read-out: Brain Conc. (BC)",41 ± 38 ng/g
same,Kp at 12 h,"[11]; brain, po, 21.4 mg/kg, PO 21.4 mg/kg, 12 h, read-out: BC/PC Ratio",0.41 ± 0.27
same,concentration at 12 h,"[11]; brain, po, 21.4 mg/kg, PO 21.4 mg/kg, 12 h, read-out: Brain Conc. (BC)",15 ± 5 ng/g
same,penetration into the brain,[11]; following IV administration,fast
same,concentration at 0.25 h,"[11]; plasma, iv, 4.5 mg/kg, IV bolus 4.5 mg/kg, 0.25 h, read-out: Plasma Conc. (PC)",819 ± 87 ng/mL
same,concentration at 2 h,"[11]; plasma, iv, 4.5 mg/kg, IV bolus 4.5 mg/kg, 2 h, read-out: Plasma Conc. (PC)",124 ± 17 ng/mL
same,concentration at 4 h,"[11]; plasma, iv, 4.5 mg/kg, IV bolus 4.5 mg/kg, 4 h, read-out: Plasma Conc. (PC)",43 ± 5.6 ng/mL
same,concentration at 8 h,"[11]; plasma, iv, 4.5 mg/kg, IV bolus 4.5 mg/kg, 8 h, read-out: Plasma Conc. (PC)",5.6 ± 3.3 ng/mL
same,concentration at 12 h,"[11]; plasma, iv, 4.5 mg/kg, IV bolus 4.5 mg/kg, 12 h, read-out: Plasma Conc. (PC)",4 ± 1.1 ng/mL
same,concentration at 0.25 h,"[11]; plasma, po, 21.4 mg/kg, PO 21.4 mg/kg, 0.25 h, read-out: Plasma Conc. (PC)",126 ± 92 ng/mL
same,concentration at 2 h,"[11]; plasma, po, 21.4 mg/kg, PO 21.4 mg/kg, 2 h, read-out: Plasma Conc. (PC)",301 ± 244 ng/mL
same,concentration at 4 h,"[11]; plasma, po, 21.4 mg/kg, PO 21.4 mg/kg, 4 h, read-out: Plasma Conc. (PC)",642 ± 433 ng/mL
same,concentration at 8 h,"[11]; plasma, po, 21.4 mg/kg, PO 21.4 mg/kg, 8 h, read-out: Plasma Conc. (PC)",108 ± 80 ng/mL
same,concentration at 12 h,"[11]; plasma, po, 21.4 mg/kg, PO 21.4 mg/kg, 12 h, read-out: Plasma Conc. (PC)",45 ± 20 ng/mL
same,blood pressure,[12],failed to affect
same,heart rate,[12],failed to affect
